System: LPS-induced TNF-α production in THP-1 cells
Assay: Inhibition of LPS-induced TNF-α production in THP-1 cells (TNF-α ELISA)
Format: cell-based
Conditions: Homo sapiens, 30 min preincubation with compound, LPS 4 hours, TNF-α in supernatant by ELISA, percentage of DMSO control
Experimental: The assay uses a modification of the methods described in Blifield et al., Transplantation, 51:498-503 (1991).
(a) Induction of TNF Biosynthesis
THP-1 cells were suspended in serum free culture medium LGM-3 (Clonetics, Bio Whittaker, UK, Cat. No. CC-3211), at a concentration of 5×10^5 cells/ml and then plated in 96 well-plates (0.2 ml aliquots in each well). Test compounds were dissolved in DMSO and then diluted with the culture medium such that the final DMSO concentration was 1%. Twenty five μl aliquots of test solution or only medium with DMSO (control) were added to each well giving a final DMSO concentration of 0.1%. The cells were incubated for 30 min. at 37° C. LPS (Sigma Chemical Company, UK) was added to the wells at a final concentration of 2 μg/nml, and cells were incubated for an additional 4 hours. At the end of the incubation period, culture supernatants were collected and the amount of TNF-α present was determined using a commercial TNF-α ELISA assay as described below.
(b) ELISA Assay. Quantikine™ human TNF-α (R&D Systems Europe Ltd., UK) (Cat. No. DTA50 in 2000)
The assay was carried out according to the manufacturer's instructions with the following modifications. Assay plates were centrifuged at 200 g and a 200 μl sample added to each well. TNF-α standard was made up and diluted in LGM-3 culture medium. Samples in the ELISA plate were then incubated overnight at 4° C. instead of 2 hours at 37° C. TNF-α production for each condition was calculated and expressed as a percentage of DMSO control to enable IC50 calculation.

Row | IC50 [nM] | SMILES
1 | 5080 | O=C1Nc2sccc2/C1=C/c1ccc[nH]1 [Example 1, (Z)-4,6-Dihydro-4-[(1H-pyrrol-2yl)methylene]thieno[2,3-b]pyrrol-5-one]
2 | 1100 | O=C1Nc2sccc2/C1=C/c1c[nH]nc1-c1ccccc1 [Example 9, (Z)-4,6-Dihydro-4-[(3-phenyl-1H-pyrazol-4-yl)methylene]-thieno[2,3-b]pyrrol-5-one]
3 | 1590 | COc1cc[nH]c1/C=C1\C(=O)Nc2sccc21 [Example 13, (Z)-4,6-Dihydro-4-[(3-methoxy-1H-pyrrol-2-yl)methylene]-thieno[2,3-b]pyrrol-5-one]
4 | 3690 | N#Cc1cc2c(s1)NC(=O)/C2=C\c1ccc[nH]1 [Example 20, (Z)-5,6-Dihydro-5-oxo-4-[(1H-pyrrol-2-yl)methylene]-4H-thieno[2,3-b]pyrrole-2-carbonitrile]
